Patent US20230042961A1, “FUNGICIDAL COMPOUNDS AND MIXTURES FOR FUNGAL CONTROL IN CEREALS” (Dow AgroSciences LLC, priority 2017, published 2023)

Assays:
[1] = tested on: Puccinia recondita (PUCCRT); experiment: Field assessment of brown rust of wheat (PUCCRT), 2 field trials; type: in vivo, Puccinia recondita on wheat (TRZAW); details: relative AUDPC, average of 2 field trials, with Agnique BP-420
Excerpt: (§1) Treatments consisted of the compound of Formula I and the compound of Formula II either using individually or as a two-way mixture with the compound of Formula I. The compound of Formula I was applied with Agnique BP-420 (50% w/w at 0.3% v/v) at 75 and 150 g ai/ha and the compound of Formula II was applied with Agnique BP-420 (50% w/w at 0.3% v/v) at 20, 40, and 60 g ai/ha. Commercial standards used in the studies were Fluxapyroxad (Imtrex), applied at 100 g ai/ha, and Metconazole+Fluxapyroxad (Librax), applied at 161 g ai/ha.
Field Assessment of Puccinia recondita (PUCCRT) in Wheat:
Fungicidal treatment containing the compound of Formula I and the compound of Formula II, either individually or as a two mixture, were assessed against brown rust of wheat (PUCCRT) in two separate field trials. In the first trial, fungicidal treatments were applied at B37-39 (protectant, approximately 0% infection at application) growth stage of wheat (TRZAW, MV Vanek variety) under natural infection of brown rust. The treatment was part of an experimental trial designed as a randomized complete block with four replications and a plot of approximately 2×3 m. Fungicidal treatments were applied at a water volume of 200 L/ha, using a backpack plot sprayer with a TEEJET QJ90-2XTT110 015 Nozzle.
In the second trial, fungicidal treatments containing the compound of Formula I and the compound of Formula II, either individually or as a two way mixture, were applied at B33 (curative, approximately 6.6% infection at application) growth stage of wheat (TRZAW, Miradoux variety) under natural infection of brown rust. The treatments were part of an experimental trial designed as a randomized complete block with four replications and a plot of approximately 2×3 m. Fungicidal treatments were applied at a water volume of 200 L/ha, using a backpack plot sprayer with a HARDI MD110-02 Nozzle.
(§2) Disease severity (percentage of visual diseased foliage on whole plot or leaves) in both field trials was assessed at 5 weeks after application and was recorded following EPPO PP1/26 guideline prescriptions. Area under the disease progress curve (AUDPC) was calculated for each plot in both trials using the sets of recorded severity data. Relative AUDPC (% control based on AUDPC) was calculated as percent of the nontreated control. Final results for the control of brown rust of wheat by the compound of Formula I, the compound of Formula II, and mixtures are reported as an average of the relative AUDPC calculated over both field trials. Statistical analysis was done according to ANOVA and Tukey's test (p=0.10).

[2] = tested on: Zymoseptoria tritici (SEPTTR); experiment: Field assessment of leaf blotch of wheat (SEPTTR), 3 field trials; type: in vivo, Zymoseptoria tritici on winter wheat (TRZAW); details: relative AUDPC, average of 3 field trials, with Agnique BP-420
Excerpt: as §1
Field Assessment of Zymoseptoria tritici (SEPTTR) in Wheat:
Fungicidal treatments containing the compound of Formula I and the compound of Formula II, either individually or as a two way mixture, were assessed against leaf spot of wheat (SEPTTR) in three separate field trials. In the first trial, fungicidal treatments were applied at B37 (curative, 1.8% infection at application on L4) growth stage of winter wheat (TRZAW, Sy moisson variety) under naturally occurring infection with SEPTTR. The treatments were part of an experimental trial designed as a randomized complete block with four replications and a plot of approximately 2×4 m. Treatments were applied at water volume of 200 L/ha, using a backpack plot sprayer (BKPCKAIR, FLAT FAN nozzle) and pressurized at 250 kPa.
In the second trial, fungicidal treatments were applied twice at B32 (curative, 15% infection at application on L5) and B39 (16% infection at application on L4) growth stages of winter wheat (TRZAW, Riband variety) under naturally occurring infection with SEPTTR. The treatments were part of an experimental trial designed as a randomized complete block with four replications and a plot of approximately 1.5×2 m. Treatments were applied at water volume of 200 L/ha, using a backpack plot sprayer (BKPCKAIR, Flat fan nozzle) and pressurized at 180 kPa.
In the final trial, fungicidal treatments were applied twice at B32 (protective, 15% infection at application on L6) and B37 (12% infection at application on L5) growth stages of winter wheat (TRZAW, Smaragd variety) under naturally occurring infection with SEPTTR. […]
as §2, with “at 7-9” for “at 5”, “of leaf spot” for “of brown rust”, “over all three” for “over both”, “trials. […]” for “trials. Statistical analysis was done according to ANOVA and Tukey's test (p=0.10).”

[3] = tested on: Puccinia striiformis (PUCCST); experiment: Field assessment of yellow rust of wheat (PUCCST), 2 field trials; type: in vivo, Puccinia striiformis on wheat (TRZAW); details: relative AUDPC, average of 2 field trials, with Agnique BP-420
Excerpt: as §1
Field Assessment of Puccinia striiformis (PUCCST) in Wheat:
Fungicidal treatments containing the compound of Formula I and the compound of Formula II, either individually or as a two way mixture, were assessed against yellow rust of wheat (PUCCST) in two separate field trials. In the first trial, fungicidal treatments were applied twice at B31-32 (early curative, 4% infection at application on L3) and B39 (16.3% infection at application on L3) growth stages of winter wheat (TRZAW, Fairplay variety) under naturally occurring infection with PUCCST. The treatments were part of an experimental trial designed as a randomized complete block with four replications and a plot of approximately 1×6 m. Treatments were applied at water volume of 200 L/ha, using a backpack plot sprayer (BKPCKENG, F110-015 Hardi (3) Flat fan nozzle) and pressurized at 200 kPa.
In the second trial, fungicidal treatments containing the compound of Formula I and the compound of Formula II, either individually or as a two way mixture, were applied twice at B32 (protectant, 0% infection on L3 at application) and B37 (early curative, 20% infection on L3 at application) growth stages of wheat (TRZAW, Torch variety) under naturally occurring infection with PUCCST. The treatment was part of an experimental trial designed as a randomized complete block with four replications and a plot of approximately 2×4 m. Treatments were applied at water volume of 200 L/ha, using a backpack precision plot sprayer (BKCKAIR, F110-03 Hypro (4) Flat fan nozzle) and pressurized at 210 kPa.
as §2, with “4-7” for “5”, “yellow” for “brown”

N#Cc1ccc(Oc2ccc(C(F)(F)C(O)(Cn3nc[nH]c3=S)c3ccc(F)cc3F)nc2)cc1 (stereo not drawn) [Compound I, 4-((6-(2-(2,4-difluorophenyl)-1,1-difluoro-2-hydroxy-3-(5-thioxo-4,5-dihydro-1H-1,2,4-triazol-1-yl)propyl)pyridin-3-yl)oxy)benzonitrile]
PUCCRT % Control ([1]; 75 g ai/ha): 79.7% | PUCCRT % Control ([1]; 150 g ai/ha): 89.0% | SEPTTR % Control ([2]; 75 g ai/ha): 50.3% | SEPTTR % Control ([2]; 150 g ai/ha): 73.8% | PUCCST % Control ([3]; 75 g ai/ha): 83.4% | PUCCST % Control ([3]; 150 g ai/ha): 87.7%

COc1ccnc(C(=O)N[C@@H](C)C(=O)O[C@@H](C)C(c2ccc(F)cc2)c2ccc(F)cc2)c1OC(C)=O [Compound II, (S)-1,1-bis(4-fluorophenyl)propan-2-yl (3-acetoxy-4-methoxypicolinoyl)-L-alaninate]
PUCCRT % Control ([1]; 20 g ai/ha): 45.4% | PUCCRT % Control ([1]; 40 g ai/ha): 64.7% | SEPTTR % Control ([2]; 20 g ai/ha): 35.1% | SEPTTR % Control ([2]; 40 g ai/ha): 52.2% | PUCCST % Control ([3]; 40 g ai/ha): 50.6% | PUCCST % Control ([3]; 60 g ai/ha): 56.2%
